Measured values as given in paper PMC3871618 (PLoS ONE, 2013).

Experiments:
ABCB1 [1] = molecular target: T1, ABCB1 (Homo sapiens, UniProt P08183); test: ABCB1-ATPase inhibition assay (verapamil-stimulated), Sf9 membranes; assay type: biochemical; set-up: purchased Solvo Biotechnology (Szeged, Hungary); host or cells: Sf9 insect cell membranes; settings: 140 nM to 300 µM
Description: (§1) The drug efflux function of ABCB1 is linked to hydrolysis of ATP by ATPase, which is stimulated in the presence of ABCB1 substrates. In the activation assay, transported substrates can stimulate baseline vanadate-sensitive ATPase activity, whereas in the inhibition assay, which is carried out in the presence of a known activator of the transporter, inhibitors may reduce the maximal vanadate-sensitive ATPase activity. ATPase activity was measured by assessing the amount of phosphate liberated from ATP by the ABCB1 transporter using the […] ATPase kit for ABCB1 according to the manufacturer’s instructions. For this purpose, Sf9 cell membranes (4 µg protein per well) were mixed with each of the test compounds (singly) in solutions with concentrations ranging from 140 nM to 300 µM, then incubated at 37°C for 10 min in the presence or absence of 1.2 mM sodium orthovanadate. The reaction was started by adding 10 mM ATP solution (magnesium salt) to the reaction mixture, stopped 10 min later, and the absorbance at 590 nm was measured after a further 30 min incubation (GeniosPlus apparatus; Tecan, Männedorf, Switzerland). The ATPase activity in each sample was determined as the difference in liberated amounts of phosphate measured in the presence and absence of 1.2 mM sodium orthovanadate. Phosphate standards were prepared in each plate and verapamil served as a positive control for ABCB1 stimulation. The results are expressed as vanadate-sensitive ATPase activities.

ABCB1 [2] = molecular target: T1, ABCB1; test: ABCB1-ATPase activation assay (baseline), Sf9 membranes; assay type: biochemical; set-up: purchased Solvo Biotechnology (Szeged, Hungary); host or cells: Sf9 insect cell membranes; settings: from ATPase activity in Sf9 membranes overexpressing human ABCB1
Description: as §1

ABCB1 [3] = molecular target: T1, ABCB1; test: HOE (Hoechst 33342) accumulation in MDCKII-ABCB1 cells; assay type: cell-based; set-up: expressed in transfected cells; host or cells: MDCKII (canine kidney) cells transduced with human ABCB1, from Prof; Piet Borst and Dr. Alfred Schinkel (The Netherlands Cancer Institute); settings: human, probe Hoechst 33342 (HOE), 8 µM, CDKi applied at their respective IC50 concentrations, % as strongly as LY, read-out: Inhibition of HOE efflux relative to LY
Description: (§2) To investigate the inhibitory activity of CDKi on ABCB1, the intracellular accumulation of HOE, a fluorescent ABCB1 substrate, was examined in both MDCKII-ABCB1 and MDCKII parent cell lines in the presence and absence of the tested compounds. The reduction in fluorescence intensity in ABCB1-transduced cells indicates the efflux activity of the ABCB1 transporter, its inhibition increases HOE accumulation and thus the intracellular fluorescence.
(§3) The assay was conducted as previously described and optimized for application in ABCB1-expressing cells. Briefly, MDCKII-ABCB1 and MDCKII parent cells were seeded at 5×10^4 cells per well on a 96-well culture plate and used for accumulation experiments after 24 h cultivation. The medium was removed and cells were washed twice with prewarmed phosphate buffered saline (PBS) at pH 7.4.

mouse P-glycoprotein = tested on: mouse P-glycoprotein; set-up: method as in PMID 15338193; settings: cited from earlier work
ABCB1 transporter [4] = molecular target: T2, ABCB1 transporter (Homo sapiens, UniProt P08183); test: HOE (Hoechst 33342) accumulation in MDCKII-ABCB1 cells; assay type: cell-based; settings: 8 µM HOE, end-point fluorescence at 30 min, 50% of each compound's own maximum inhibitory activity, read-out: IC50, inhibition of ABCB1-mediated efflux of HOE
T2 construct: expressed in transfected cells; host or cells: MDCKII (canine kidney) cells transduced with human ABCB1, from Prof; Piet Borst and Dr. Alfred Schinkel (The Netherlands Cancer Institute)
Description: as §2, §3

ABCB1 transporter [5] = molecular target: T2, ABCB1 transporter; test: DNR accumulation in MDCKII-ABCB1 cells (flow cytometry), normalized to parental MDCKII; assay type: cell-based; settings: 1 - 20 µM CDKi, 2 µM DNR
Description: Briefly, MDCKII-ABCB1 and MDCKII parent cells were seeded at 1.5×10^5 cells per well on a 12-well plate 24 h before the experiment. The medium was removed and the cells were washed with prewarmed PBS. The cells were then preincubated in Opti-MEM, with or without CDKi or LY at 37°C in 5% CO2 for 30 min. […] Accumulation was stopped by cooling the samples on ice, removing the medium and washing twice with ice-cold PBS. The cells were then detached from the plates with 10× trypsin-EDTA, resuspended in PBS with 2% FBS and transferred to Eppendorf tubes, which were placed on ice until analysis. […] The median fluorescence (MF) intensity of 10,000 measured cells was used to compare the fluorescence resulting from each of the treatments. […] The MF intensity of untreated cells was subtracted from fluorescence values obtained for all the measured samples.
To quantify the inhibitory effect of each tested compound on the ABCB1 transporter in the MDCKII-ABCB1 cell line, the ratio between the MF intensity with or without inhibitor was calculated and normalized to the effect in the parental MDCKII cell line according to the following equation [30]: [drawing 1]

T1 sequence (P08183 whole entry): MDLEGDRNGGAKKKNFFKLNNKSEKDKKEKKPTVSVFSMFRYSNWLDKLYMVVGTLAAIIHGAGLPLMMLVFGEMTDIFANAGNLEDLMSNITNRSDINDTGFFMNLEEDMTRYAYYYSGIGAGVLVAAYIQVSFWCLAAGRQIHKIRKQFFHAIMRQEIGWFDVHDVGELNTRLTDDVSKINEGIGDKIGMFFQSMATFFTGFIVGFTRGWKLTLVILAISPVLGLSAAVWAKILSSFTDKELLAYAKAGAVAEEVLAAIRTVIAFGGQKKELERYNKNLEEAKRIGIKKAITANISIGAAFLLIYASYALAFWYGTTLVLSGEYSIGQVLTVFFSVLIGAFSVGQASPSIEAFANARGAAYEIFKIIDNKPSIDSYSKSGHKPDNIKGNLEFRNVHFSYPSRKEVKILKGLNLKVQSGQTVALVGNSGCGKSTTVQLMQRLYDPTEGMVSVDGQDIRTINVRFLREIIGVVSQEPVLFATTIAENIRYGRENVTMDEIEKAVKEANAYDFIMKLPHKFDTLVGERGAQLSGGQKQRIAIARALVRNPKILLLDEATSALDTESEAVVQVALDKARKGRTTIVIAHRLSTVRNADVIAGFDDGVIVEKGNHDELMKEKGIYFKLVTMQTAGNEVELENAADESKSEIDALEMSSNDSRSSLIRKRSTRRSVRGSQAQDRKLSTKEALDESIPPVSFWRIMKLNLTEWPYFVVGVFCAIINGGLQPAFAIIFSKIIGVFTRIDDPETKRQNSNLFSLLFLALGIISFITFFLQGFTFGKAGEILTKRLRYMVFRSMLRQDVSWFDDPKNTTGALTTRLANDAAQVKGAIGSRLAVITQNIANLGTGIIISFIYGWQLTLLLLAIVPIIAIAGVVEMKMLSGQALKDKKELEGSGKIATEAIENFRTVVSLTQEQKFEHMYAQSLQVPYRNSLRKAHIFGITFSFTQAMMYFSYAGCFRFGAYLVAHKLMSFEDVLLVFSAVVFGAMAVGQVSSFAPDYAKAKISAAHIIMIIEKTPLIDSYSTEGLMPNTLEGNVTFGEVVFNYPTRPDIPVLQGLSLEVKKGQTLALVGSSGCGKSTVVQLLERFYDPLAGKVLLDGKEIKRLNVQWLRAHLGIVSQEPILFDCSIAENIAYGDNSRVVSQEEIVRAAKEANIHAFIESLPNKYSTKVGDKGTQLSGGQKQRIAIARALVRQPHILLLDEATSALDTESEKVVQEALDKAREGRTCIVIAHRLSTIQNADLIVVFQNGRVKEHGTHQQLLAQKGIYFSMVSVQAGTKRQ
T2 sequence (P08183 whole entry): as above

CC(C)(C)c1cnc(CSc2cnc(NC(=O)C3CCNCC3)s2)o1 [SNS-032]
Effect on verapamil-stimulated vanadate-sensitive ATPase activity of ABCB1 (ABCB1 [1]): only slightly reduced it at the highest tested concentration | ABCB1 substrate classification (ABCB1 [2]): non-substrates of ABCB1 | inhibition at 30 min (ABCB1 [3]): 23% | Substrate of mouse P-glycoprotein (brain levels Abcb1 knockout vs wild type mice) (mouse P-glycoprotein): substrate of mouse P-glycoprotein | IC50 (ABCB1 transporter [4]): 14.6 µM | Inhibition of DNR efflux/accumulation across applied range (ABCB1 transporter [5]): did not inhibit DNR accumulation at any tested concentration
